Data: PMC8954547, “Nonpeptidic Z360-Analogs Tagged with Trivalent Radiometals as Anti-CCK2R Cancer Theranostic Agents: A Preclinical Study” (Pharmaceutics, 2022)

Key:
[1] = Radioligand stability in mice (radio-HPLC of blood and urine); type: in vivo; settings: mean ± SD
Experimental: The formation of radiometabolites which can be detected in the blood was tested in blood samples collected 5 min post-injection (pi) of each of the radioligands [^67Ga]Ga/[^111In]In/[^177Lu]Lu-GAS1/3 and [^67Ga]Ga/[^111In]In-GAS2. For this study, in-house male Swiss albino mice (body weight: 30 ± 5 g, provided by the NCSR “Demokritos” Animal House) were used in groups of three. The animals received, through the tail vein, a 100-μL bolus containing each radioligand tested (2.5–3 nmol of the total conjugate in vehicle: saline/EtOH 9/1 v/v, corresponding to: up to 11 MBq for In-111, up to 13 MBq for Ga-67 and up to 74 MBq for Lu-177). Mice were euthanized, and blood was collected directly from the heart using a prechilled penicillin syringe and transferred in a prechilled EDTA-containing Eppendorf Protein LoBind® tube on ice (40 µL, 50 mM Na2EDTA solution). After centrifugation (10 min, 2000× g/4 °C, in a Hettich, Universal 320R, centrifuge), the blood plasma was collected, mixed with chilled MeCN in a 1/1 v/v ratio and centrifuged again (10 min, 15,000× g/4 °C). Supernatants were collected and concentrated to a small volume (≈50–100 μL) under a gentle N2-flux at 40 °C. They were then diluted with physiological saline (≈400 μL) and filtered through a Millex GV filter (0.22 μm, 13 mm Ø, Millipore, Milford, CT, USA). Aliquots of the filtrate were analyzed by radio-RP-HPLC using a Waters Symmetry Shield RP18 cartridge column (5 μm, 3.9 mm × 20 mm) eluted at a flow rate of 1.0 mL/min with the following gradient: 100% A/0% B to 55% A/45% B in 45 min; A = 0.1% aqueous TFA (v/v) and B = MeCN (system 2). The elution time (tR) of each parent radioligand was determined by coinjection of blood samples with an aliquot of the labeling solution on the HPLC column. Results were calculated as the average percentage of intact radioligand ± SD derived from three independent experiments.
Following the same injection protocol, radioligands were administered in additional groups of mice, but this time animals were euthanized 30 min pi. The urine was immediately collected from the bladder using a prechilled syringe and transferred as before in a prechilled EDTA-containing Eppendorf Protein LoBind® centrifuge tube on ice (40 µL, 50 mM Na2EDTA solution) and 0.1 mL of physiological saline. Urine proteins were precipitated by adding chilled MeCN in a 1/1 v/v ratio followed by a 10 min centrifugation step (15,000× g/4 °C). The supernatant was then collected and treated following the blood sample workup procedure. Aliquots of the Millex-GV filtrate (containing >90% of total urine activity) were analyzed by radio-HPLC, adopting the aforementioned conditions. Results were calculated as the average percentage of intact radioligand ± SD derived from three independent experiments.

[2] = test system: SCID mice bearing twin HEK293-CCK2i4svR and wtHEK293 tumors; assay: Biodistribution in SCID mice bearing twin HEK293-CCK2i4svR and wtHEK293 xenografts; type: in vivo
Experimental: Inocula containing a suspension of freshly harvested HEK293-CCK2i4svR/wtHEK293 cells (150 μL, 1.8 × 10^7/1.4 × 10^7 cells, respectively, in normal saline) were subcutaneously (sc) injected in the right and left flanks of male SCID mice (24.5 ± 2.3 g body weight, six weeks of age on arrival day, NCSR “Demokritos” Animal House Facility). Well-palpable tumors (0.42 ± 0.37/0.25 ± […], respectively) were grown at the inoculation site 3–4 weeks later, and biodistribution was conducted. On the day of biodistribution, animals were divided into groups of four and received the radioligand through the tail vein as a bolus (100 μL, containing each of: i. 78–91 kBq [^67Ga]GAS1/2/3 corresponding to 7–17 pmol GAS1/2/3; ii. 74–92 kBq [^111In]GAS1/2/3 corresponding to 20–25 pmol GAS1/2/3; iii. 730 kBq [^177Lu]Lu-GAS1/3 corresponding to 40 pmol GAS1/3, in-vehicle: saline/EtOH 9/1 v/v). Animals were euthanized at predetermined time intervals depending upon the radionuclide applied (for [^67Ga]Ga-GAS1/2/3: 1, 4 and 24 h pi; for [^111In]In-GAS1/2/3: 4 and 24 h pi–two extra groups of mice receiving gelofusine together with [^111In]In-GAS1/2 at 4 and 24 h pi were included; and for [^177Lu]Lu-GAS1/3: 4, 24, 48, 72 and 96 h pi). Mice were dissected, and blood samples, organs of interest and tumors were rapidly collected, weighted and counted in the gamma counter. Biodistribution data was calculated as the percentage of the administered dose per gram tissue (%IA/g) with the aid of suitable standards of the administered dose and the Microsoft Excel program. Results are presented as mean % IA/g values ± SD, n = 4 per time point, as determined by the PRISM^TM 6.0 GraphPad software (San Diego, CA, USA).

HEK293-CCK2i4svR cells = assay: Radioligand uptake and internalization in HEK293-CCK2i4svR cells; type: cell-based, human
Experimental: A day before the experiment, HEK293-CCK2i4svR cells were seeded in six-well plates. The next day, cells were rinsed with ice-cold internalization medium (IM: DMEM Glutamax-I, supplemented by 1% (v/v) FBS) and then the fresh medium was added (1.2 mL) at 37 °C. A further portion of IM (150 µL) was added in the upper well-row, and DG2 solution in IM (150 µL) was added in the lower row (to a final concentration of 1 μM; non-specific series). Each of the test radioligands, [^67Ga]Ga/[^111In]In/[^177Lu]Lu-GAS1/3 and [^67Ga]Ga/[^111In]In-GAS2, was finally added (250 fmol total conjugates in 150 μL 0.5% BSA-PBS) in all the wells and the plates were incubated at for 1 h at 37 °C in an Incubator-Orbital Shaker unit (MPM Instr. SrI, Bernareggio, MI, Italy); [^111In]In-GAS1/2/3 were incubated for 15 min, 30 min, 1 h and 2 h. At the predetermined time points, the plates were placed on ice, the medium was collected, and the plates were rinsed with 0.5% BSA-PBS (1 mL). Cells were subsequently treated with an acid-wash solution (2 × 600 µL; 50 mM glycine buffer pH 2.8, 0.1 M NaCl) and the fractions collected (membrane-bound). After briefly washing with 0.5% BSA-PBS (1 mL), the cells were lysed with 1 N NaOH (2 × 600 µL), and the fractions were collected (internalized). The radioactivity content of collected fractions was counted in the gamma counter, and the percentage of internalized and membrane-bound fractions per time point were calculated with Microsoft Excel. Specific internalized and membrane-bound counts were determined by subtracting the respective non-specific (in the presence of 1 μM DG2) from the respective total counts. Results represent specific internalized/membrane bound ± SD of total added radioactivity per well from three experiments performed in triplicate.

CC(C)(C)C(=O)CN1C(=O)[C@H](NC(=O)Nc2cccc(C(=O)NCCOCCOCCOCCNC(=O)[C@H](CCC(=O)O)NC(=O)CCC(C(=O)[O-])N3CCN(CC(=O)[O-])CCN(CC(=O)[O-])CC3)c2)CN(C2CCCCC2)c2ccccc21.[67Ga+3] (stereo in doubt) [[^67Ga]Ga-GAS2]
Intact radioligand in blood ([1]; mice blood collected 5 min pi): 96.3 ± 3.7 (3) % | Intact radioligand in urine ([1]; mice urine collected 30 min pi): 81.6 ± 1.5 (3) % | Biodistribution, Blood ([2]; 1 h pi): 0.86 ± 0.08 %IA/g | Biodistribution, CCK2i4svR(+) Tumor ([2]; 1 h pi): 4.06 ± 0.07 %IA/g | Biodistribution, CCK2i4svR(-) Tumor ([2]; 1 h pi): 0.48 ± 0.03 %IA/g | Biodistribution, Femur ([2]; 1 h pi): 0.24 ± 0.03 %IA/g | Biodistribution, Heart ([2]; 1 h pi): 0.27 ± 0.03 %IA/g | Biodistribution, Intestines ([2]; 1 h pi): > 25 %IA/g | Biodistribution, Kidneys ([2]; 1 h pi): 1.48 ± 0.18 %IA/g | Biodistribution, Liver ([2]; 1 h pi): 5.51 ± 2.03 %IA/g | Biodistribution, Lungs ([2]; 1 h pi): 0.80 ± 0.09 %IA/g | Biodistribution, Muscle ([2]; 1 h pi): 0.12 ± 0.02 %IA/g | Biodistribution, Pancreas ([2]; 1 h pi): 0.37 ± 0.05 %IA/g | Biodistribution, Spleen ([2]; 1 h pi): 0.52 ± 0.06 %IA/g | Biodistribution, Stomach ([2]; 1 h pi): 0.32 ± 0.14 %IA/g | Biodistribution, Intestines ([2]; 1 h pi, listed as [67Ga]Ga-GAS2): 25.26 ± 2.90 %IA/g | Biodistribution, Blood ([2]; 4 h pi): 0.19 ± 0.06 %IA/g | Biodistribution, CCK2i4svR(+) Tumor ([2]; 4 h pi): 1.53 ± 0.26 %IA/g | Biodistribution, CCK2i4svR(-) Tumor ([2]; 4 h pi): 0.19 ± 0.08 %IA/g | Biodistribution, Femur ([2]; 4 h pi): 0.13 ± 0.03 %IA/g | Biodistribution, Heart ([2]; 4 h pi): 0.10 ± 0.03 %IA/g | Biodistribution, Intestines ([2]; 4 h pi): > 25 %IA/g | Biodistribution, Kidneys ([2]; 4 h pi): 0.39 ± 0.11 %IA/g | Biodistribution, Liver ([2]; 4 h pi): 2.64 ± 0.85 %IA/g | Biodistribution, Muscle ([2]; 4 h pi): 0.04 ± 0.01 %IA/g | Biodistribution, Pancreas ([2]; 4 h pi): 0.08 ± 0.05 %IA/g | Biodistribution, Spleen ([2]; 4 h pi): 0.55 ± 0.15 %IA/g | Biodistribution, Stomach ([2]; 4 h pi): 0.14 ± 0.06 %IA/g | Biodistribution, Intestines ([2]; 4 h pi, listed as [67Ga]Ga-GAS2): 26.38 ± 11.89 %IA/g | Biodistribution, Blood ([2]; 24 h pi): 0.05 ± 0.00 %IA/g | Biodistribution, CCK2i4svR(+) Tumor ([2]; 24 h pi): 0.24 ± 0.03 %IA/g | Biodistribution, CCK2i4svR(-) Tumor ([2]; 24 h pi): 0.08 ± 0.00 %IA/g | Biodistribution, Femur ([2]; 24 h pi): 0.10 ± 0.03 %IA/g | Biodistribution, Heart ([2]; 24 h pi): 0.04 ± 0.01 %IA/g | Biodistribution, Intestines ([2]; 24 h pi): 0.31 ± 0.32 %IA/g | Biodistribution, Kidneys ([2]; 24 h pi): 0.06 ± 0.01 %IA/g | Biodistribution, Liver ([2]; 24 h pi): 0.78 ± 0.17 %IA/g | Biodistribution, Lungs ([2]; 24 h pi): 0.15 ± 0.02 %IA/g | Biodistribution, Muscle ([2]; 24 h pi): 0.02 ± 0.00 %IA/g | Biodistribution, Pancreas ([2]; 24 h pi): 0.03 ± 0.00 %IA/g | Biodistribution, Spleen ([2]; 24 h pi): 0.35 ± 0.02 %IA/g | Biodistribution, Stomach ([2]; 24 h pi): 0.06 ± 0.02 %IA/g | Background clearance / excretion route ([2]; mouse, in vivo): high hepatobiliary excretion | Internalized to membrane-bound ratio (HEK293-CCK2i4svR cells): 0.9 | Cell uptake (internalized + membrane-bound) (HEK293-CCK2i4svR cells; 1 h 37 °C, specific, of total added activity): 7.32 ± 0.57%
